From patent publication US20250034170A1, “SMALL MOLECULE MODULATORS OF GLUCOCEREBROSIDASE ACTIVITY AND USES THEREOF” (Vanqua Bio, Inc., priority 2021, published 2025) come the findings set out here.

For one assay, the target named is T1, GCase (Homo sapiens, UniProt P04062).
T1 construct: endogenous in cells; host or cells: HeLa cells
T1 sequence (P04062 40-536): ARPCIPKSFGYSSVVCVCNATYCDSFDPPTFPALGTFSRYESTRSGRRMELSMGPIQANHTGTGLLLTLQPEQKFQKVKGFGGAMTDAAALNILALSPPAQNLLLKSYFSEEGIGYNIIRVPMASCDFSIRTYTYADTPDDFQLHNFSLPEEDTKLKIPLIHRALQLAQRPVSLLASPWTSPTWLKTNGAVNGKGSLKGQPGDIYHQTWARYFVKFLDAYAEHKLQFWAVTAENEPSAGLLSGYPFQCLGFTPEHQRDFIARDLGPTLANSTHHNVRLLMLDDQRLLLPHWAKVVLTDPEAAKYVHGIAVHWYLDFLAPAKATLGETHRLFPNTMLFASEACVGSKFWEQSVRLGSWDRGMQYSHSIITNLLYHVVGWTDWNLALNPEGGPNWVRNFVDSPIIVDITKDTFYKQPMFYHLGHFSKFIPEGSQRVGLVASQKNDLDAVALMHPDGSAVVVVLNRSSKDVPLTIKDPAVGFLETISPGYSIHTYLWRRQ
Nature of the assay: activation of GCase in a live cell PFB assay in HELA cells. The assay is classed as cell-based. The settings on record: EC50 given as range classes. As for the experimental part:
Exemplary compounds were evaluated for activation of GCase in a live cell PFB assay in HELA cells (essentially as described in Ysselstein et al., “LRRK2 kinase activity regulates lysosomal glucocerebrosidase in neurons derived from Parkinson's disease patients” Nature Communications (2019) 10:5570). […] EC50 ranges: A: <10 μM; B: >10-50 μM; C: >50-100 μM; D: >100 μM.
Consider `FC(F)Cn1ncc2ncc(NC3COC4(C3)CN(c3ccc(C(F)(F)F)nc3)C4)nc21` (centres unmarked) [Cmpd 191], for which the EC50 lay in the range of 10 to 50 µM.
The same measure, in the same setting: the same measure for `FC(F)Cn1ncc2ncc(NC3COC4(C3)CN(c3cc(C(F)(F)F)ccn3)C4)nc21` (centres unmarked) [Cmpd 192]: under 10 µM; for `FC(F)Cn1ncc2ncc(NC3CCC4(CCN(c5ccc(C(F)(F)F)nc5)C4)C3)nc21` (centres unmarked) [Cmpd 193]: 10 to 50 µM.
The same measure, in the same setting: the same measure for `FC(F)Cn1ncc2ncc(NC3CCC4(CCN(c5cc(C(F)(F)F)ccn5)C4)C3)nc21` (centres unmarked) [Cmpd 194]: under 10 µM; for `FC(F)Cn1ncc2ncc(NC3CCC4(CCN(c5ccc(C(F)(F)F)nc5)CC4)C3)nc21` (centres unmarked) [Cmpd 195]: 10 to 50 µM; for `FC(F)Cn1ncc2ncc(NC3CCC4(CCN(c5cc(C(F)(F)F)ccn5)CC4)C3)nc21` (centres unmarked) [Cmpd 196]: over 100 µM.
In turn, `FC(F)Cn1ncc2ncc(N[C@H]3CC[C@@]4(CCN(c5cc(C(F)(F)F)ccn5)C4)CC3)nc21` [Cmpd 197] showed an EC50 of 10 to 50 µM.
Still for that read-out and setting: as for `FC(F)Cn1ncc2ncc(NC3CCC4(CC3)CN(c3ccc(C(F)(F)F)cn3)C4)nc21` [Cmpd 198], the figure is 10 to 50 µM; as for `FC(F)Cn1ncc2ncc(NC3CCC4(CC3)CN(c3cncc(C(F)(F)F)c3)C4)nc21` [Cmpd 199], under 10 µM.
On the same count and under the same terms, the same measure for `FC(F)Cn1ncc2ncc(NC3CCC4(CC3)CN(c3ccc(C(F)(F)F)nc3)C4)nc21` [Cmpd 200]: 10 to 50 µM.
Take `O=C1N(c2ccc(C(F)(F)F)nc2)CCC12CCN(c1cnc3cnn(CC(F)F)c3n1)C2` (centres unmarked) [Cmpd 201]: the EC50 fell in the range of 10 to 50 µM.
Compound `O=C1N(c2ccc(C(F)(F)F)cn2)CCC12CCN(c1cnc3cnn(CC(F)F)c3n1)C2` (centres unmarked) [Cmpd 202] displayed an EC50 of 10 to 50 µM.
The same measure, in the same setting: the same measure for `O=C1N(c2cccc(C(F)(F)F)n2)CCC12CCN(c1cnc3cnn(CC(F)F)c3n1)C2` (centres unmarked) [Cmpd 203]: 10 to 50 µM; for `O=C1N(c2cncc(C(F)(F)F)c2)CCC12CCN(c1cnc3cnn(CC(F)F)c3n1)C2` (centres unmarked) [Cmpd 204]: 10 to 50 µM; for `FC(F)Cn1ncc2ncc(N3CCC4(CC3)CN(c3ccc(C(F)(F)F)nc3)CCO4)nc21` [Cmpd 205]: under 10 µM.
Still for that read-out and setting: as for `FC(F)Cn1ncc2ncc(N3CCC4(CC3)CN(c3cncc(C(F)(F)F)c3)CCO4)nc21` [Cmpd 206], the figure is under 10 µM.
On the same count and under the same terms, as for `FC(F)Cn1ncc2ncc(N3CCC4(CC3)CN(c3ccc(C(F)(F)F)cn3)CCO4)nc21` [Cmpd 207], the figure is under 10 µM; as for `FC(F)Cn1ncc2ncc(N3CCC4(CC3)CN(c3cccc(C(F)(F)F)n3)CCO4)nc21` [Cmpd 208], 10 to 50 µM.
Compound `FC(F)Cn1ncc2ncc(N3CCOC4(CCN(c5ccc(C(F)(F)F)nc5)CC4)C3)nc21` [Cmpd 209] came in with an EC50 of under 10 µM.
On the same count and under the same terms, as for `FC(F)Cn1ncc2ncc(N3CCOC4(CCN(c5cncc(C(F)(F)F)c5)CC4)C3)nc21` [Cmpd 210], the figure is under 10 µM; as for `FC(F)Cn1ncc2ncc(N3CCOC4(CCN(c5cccc(C(F)(F)F)n5)CC4)C3)nc21` [Cmpd 211], 10 to 50 µM.
The same measure, in the same setting: as for `FC(F)Cn1ncc2ncc(N3CCOC4(CCN(c5ccc(C(F)(F)F)cn5)CC4)C3)nc21` [Cmpd 212], the figure is 10 to 50 µM.
Still for that read-out and setting: the same measure for `FC(F)Cn1ncc2ncc(N3CCC4(CCCN(c5ccc(C(F)(F)F)cn5)C4)CC3)nc21` [Cmpd 213]: 10 to 50 µM; for `FC(F)Cn1ncc2ncc(N3CCC4(CCCN(c5ccc(C(F)(F)F)nc5)C4)CC3)nc21` [Cmpd 214]: 10 to 50 µM.
In the case of `FC(F)Cn1ncc2ncc(N3CCC4(CCCN(c5cncc(C(F)(F)F)c5)C4)CC3)nc21` [Cmpd 215], the EC50 was under 10 µM.
Same read-out and setting: the same measure for `FC(F)Cn1ncc2ncc(N3CCC4(CCCN(c5cccc(C(F)(F)F)n5)C4)CC3)nc21` [Cmpd 216]: 10 to 50 µM; for `FC(F)Cn1ncc2ncc(N3CCCC4(CCN(c5cc(C(F)(F)F)ccn5)CC4)C3)nc21` [Cmpd 217]: 10 to 50 µM; for `FC(F)Cn1ncc2ncc(N3CCCC4(CCN(c5ccc(C(F)(F)F)cn5)CC4)C3)nc21` [Cmpd 218]: 10 to 50 µM.
On the same count and under the same terms, as for `FC(F)Cn1ncc2ncc(N3CCCC4(CCN(c5cccc(C(F)(F)F)n5)CC4)C3)nc21` [Cmpd 219], the figure is 10 to 50 µM.
Regarding `FC(F)Cn1ncc2ncc(N3CCCC4(CCN(c5ccc(C(F)(F)F)nc5)CC4)C3)nc21` [Cmpd 220], the EC50 was under 10 µM.
On the same count and under the same terms, as for `FC(F)Cn1ncc2ncc(N3CCCC4(CCN(c5cncc(C(F)(F)F)c5)CC4)C3)nc21` [Cmpd 221], the figure is 10 to 50 µM.
The same measure, in the same setting: as for `FC(F)Cn1ncc2ncc(N3CC4(CCN(c5ccnc(C(F)(F)F)c5)C4)C3)nc21` [Cmpd 222], the figure is 10 to 50 µM.
Same read-out and setting: as for `FC(F)Cn1ncc2ncc(N3CCC4(CN(c5ccnc(C(F)(F)F)c5)C4)C3)nc21` [Cmpd 223], the figure is under 10 µM; as for `FC(F)Cn1ncc2ncc(N3CCC4(CCCN(c5cc(C(F)(F)F)ccn5)C4)CC3)nc21` [Cmpd 224], 10 to 50 µM; as for `FC(F)Cn1ncc2ncc(N3CCC4(CCCN(c5ccnc(C(F)(F)F)c5)C4)CC3)nc21` [Cmpd 225], under 10 µM.
As to `FC(F)Cn1ncc2ncc(N3CCCC4(CCN(c5ccnc(C(F)(F)F)c5)CC4)C3)nc21` [Cmpd 226], the EC50 was over 100 µM.
Same read-out and setting: as for `FC(F)Cn1ncc2ncc(N3CCC4(CC3)CC(Nc3ccc(C(F)(F)F)cn3)C4)nc21` [Cmpd 227], the figure is 10 to 50 µM; as for `FC(F)Cn1ncc2ncc(N3CCC4(CC3)CC(Nc3cncc(C(F)(F)F)c3)C4)nc21` [Cmpd 228], over 100 µM; as for `FC(F)Cn1ncc2ncc(N3CCC4(CC3)CC(Nc3ccnc(C(F)(F)F)c3)C4)nc21` [Cmpd 229], 10 to 50 µM.
Same read-out and setting: the same measure for `FC(F)Cn1ncc2ncc(N3CCC4(CC3)CC(Nc3ccc(C(F)(F)F)nc3)C4)nc21` [Cmpd 230]: 10 to 50 µM.
On the same count and under the same terms, the same measure for `FC(F)Cn1ncc2ncc(N3CCC4(CC3)CC(Nc3cc(C(F)(F)F)ccn3)C4)nc21` [Cmpd 231]: 10 to 50 µM; for `FC(F)Cn1ncc2ncc(N3CCC4(CC3)CC(Nc3cccc(C(F)(F)F)n3)C4)nc21` [Cmpd 232]: 10 to 50 µM.
In the case of `FC(F)(F)c1ccc(N2CCC3(CCN(c4cncc(-c5nncs5)n4)CC3)C2)cn1` [Cmpd 233], the EC50 was under 10 µM.

Staying with this assay, now noted: activation of GCase, EC50 ranges.
`C[C@H]1CN(c2cnc3cnn(CC(F)F)c3n2)CC[C@@]12CCN(c1cccc(C(F)(F)F)n1)C2=O` (racemic) [Cmpd 669] yielded an EC50 of 10 to 50 µM.
Same read-out and setting: the same measure for `FC(F)(F)c1ccc(N2CCC3(CCN(c4cncc(-c5nncs5)n4)CC3)C2)nc1` [Cmpd 234]: 10 to 50 µM.
Still for that read-out and setting: as for `FC(F)(F)c1cncc(N2CCC3(CCN(c4cncc(-c5nncs5)n4)CC3)C2)c1` [Cmpd 235], the figure is 50 to 100 µM; as for `O=C1CC2(CCN(c3cncc(-c4nncs4)n3)CC2)CN1c1ccc(C(F)(F)F)nc1` [Cmpd 236], under 10 µM; as for `O=C1CC2(CCN(c3cncc(-c4nncs4)n3)CC2)CN1c1cncc(C(F)(F)F)c1` [Cmpd 237], 10 to 50 µM.
Compound `FC(F)(F)c1ccc(N2CCC3(CCN(c4cncc(-n5ccnc5)n4)CC3)C2)cn1` [Cmpd 238] gave an EC50 of 10 to 50 µM.
Same read-out and setting: the same measure for `FC(F)(F)c1ccc(N2CCC3(CCN(c4cncc(-n5cccn5)n4)CC3)C2)cn1` [Cmpd 239]: under 10 µM.
Same read-out and setting: as for `FC(F)(F)c1ccc(N2CCC3(CCN(c4nccn5cncc45)CC3)C2)cn1` [Cmpd 240], the figure is 50 to 100 µM; as for `O=C1N(c2cc(C(F)(F)F)ccn2)CCC12CCN(c1cncc(-n3cccn3)n1)CC2` [Cmpd 241], 10 to 50 µM; as for `O=C1N(c2cc(C(F)(F)F)ccn2)CCC12CCN(c1cncc(-n3ccnc3)n1)CC2` [Cmpd 242], 10 to 50 µM.
Same read-out and setting: the same measure for `FC(F)(F)COc1cncc(N2CCC3(CCN(c4ccc(C(F)(F)F)nc4)C3)CC2)n1` [Cmpd 243]: under 10 µM; for `O=C1N(c2cc(C(F)(F)F)ccn2)CCC12CCN(c1cncc(OCC(F)(F)F)n1)CC2` [Cmpd 244]: 10 to 50 µM; for `O=C1N(c2cc(C(F)(F)F)ccn2)CCC12CCN(c1cncc(N3CCCC3)n1)CC2` [Cmpd 245]: 10 to 50 µM.
On to `O=C1N(c2cc(C(F)(F)F)ccn2)CCC12CCN(c1cncc(N3CCOCC3)n1)CC2` [Cmpd 246], for which the EC50 lay in the range of 10 to 50 µM.
Still for that read-out and setting: as for `O=C1N(c2ccc(C(F)(F)F)nc2)CC(c2ccccc2)C12CCN(c1cnc3cnn(CC(F)F)c3n1)CC2` (centres unmarked) [Cmpd 247], the figure is under 10 µM; as for `FC(F)(F)c1ccc(N2CCC3(CCN(c4cncc(N5CCCC5)n4)CC3)C2)cn1` [Cmpd 248], under 10 µM.
On the same count and under the same terms, the same measure for `FC(F)(F)c1ccc(N2CCC3(CCN(c4cncc(N5CCOCC5)n4)CC3)C2)cn1` [Cmpd 249]: 10 to 50 µM; for `Cc1nccn1-c1cncc(N2CCC3(CCN(c4ccc(C(F)(F)F)nc4)C3)CC2)n1` [Cmpd 250]: 10 to 50 µM; for `FC(F)(F)c1ccc(N2CCC3(CCN(c4cncc(-c5ccccc5)n4)CC3)C2)cn1` [Cmpd 251]: under 10 µM.
For `FC(F)(F)c1ccc(N2CCC3(CCN(c4cncc(-c5ncccn5)n4)CC3)C2)cn1` [Cmpd 252], the EC50 fell in the range of 10 to 50 µM.
Same read-out and setting: as for `FC(F)(F)c1ccc(N2CCC3(CCN(c4cncc(-n5cncn5)n4)CC3)C2)cn1` [Cmpd 253], the figure is under 10 µM.
As to `CC(C)Oc1cncc(N2CCC3(CCN(c4ccc(C(F)(F)F)nc4)C3)CC2)n1` [Cmpd 254], the EC50 lay in the range of 10 to 50 µM.

The term EC50 denotes the concentration at which the effect is half-maximal. A lower EC50 goes with higher potency in that assay.
